Measurements reported in patent US8410155B2, “Arylpropionamide, arylacrylamide, arylpropynamide, or arylmethylurea analogs as factor XIA inhibitors” (Bristol-Myers Squibb Company, priority 2006, dated 2013).
Where a name gives a salt, the structure may show the parent alone.

These compounds were tested against T1, purified human Factor XIa (Homo sapiens, UniProt P03951) (assay: Factor XIa enzyme inhibition assay (chromogenic substrate S-2366)). Settings: substrate S-2366, 50 mM HEPES pH 7.4.
T1 construct: purchased Haematologic Technologies
T1 sequence (P03951 388-625 limits assumed): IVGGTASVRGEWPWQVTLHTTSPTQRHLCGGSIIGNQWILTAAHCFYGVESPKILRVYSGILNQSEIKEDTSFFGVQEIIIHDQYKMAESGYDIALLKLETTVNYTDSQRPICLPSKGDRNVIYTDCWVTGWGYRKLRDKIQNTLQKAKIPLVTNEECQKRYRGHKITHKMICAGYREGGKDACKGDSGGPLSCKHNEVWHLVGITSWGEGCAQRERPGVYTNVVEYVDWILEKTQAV
T1 sequence (P03951 19-387 partner limits assumed): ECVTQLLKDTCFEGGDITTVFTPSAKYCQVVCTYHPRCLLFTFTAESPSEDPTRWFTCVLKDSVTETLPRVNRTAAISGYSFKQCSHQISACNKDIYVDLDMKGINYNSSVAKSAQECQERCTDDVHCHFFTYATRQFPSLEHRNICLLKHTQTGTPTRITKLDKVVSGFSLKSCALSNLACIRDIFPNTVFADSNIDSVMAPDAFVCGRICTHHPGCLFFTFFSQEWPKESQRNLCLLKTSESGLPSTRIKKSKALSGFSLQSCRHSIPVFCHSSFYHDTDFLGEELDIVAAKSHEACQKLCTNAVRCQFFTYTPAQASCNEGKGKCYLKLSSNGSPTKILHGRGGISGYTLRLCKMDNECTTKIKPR
Assay type: biochemical
Protocol: The effectiveness of compounds of the present invention as inhibitors of the coagulation factors XIa, VIIa, IXa, Xa, XIIa, plasma kallikrein or thrombin, can be determined using a relevant purified serine protease, respectively, and an appropriate synthetic substrate. The rate of hydrolysis of the chromogenic or fluorogenic substrate by the relevant serine protease was measured both in the absence and presence of compounds of the present invention. […] A decrease in the rate of absorbance or fluorescence change in the presence of inhibitor is indicative of enzyme inhibition. Such methods are known to one skilled in the art. The results of this assay are expressed as the inhibitory constant, Ki.
Values of Ki were determined by allowing the protease to react with the substrate in the presence of the inhibitor. Reactions were allowed to go for periods of 20-180 minutes (depending on the protease) and the velocities (rate of absorbance or fluorescence change versus time) were measured. The following relationships were used to calculate Ki values: (vo−vs)/vs=I/(Ki(1+S/Km)) for a competitive inhibitor with one binding site; or vs/vo=A+((B−A)/1+((IC50/(I)^n))) and Ki=IC50/(1+S/Km) for a competitive inhibitor

Point of comparison: `COC(=O)Nc1ccc(-c2[nH]c(CNC(=O)/C=C/c3cc(Cl)ccc3-n3cnnn3)nc2Cl)cc1` [Example 1, [4-(5-chloro-2-{[(E)-3-(5-chloro-2-tetrazol-1-yl-phenyl)-acryloylamino]-methyl}-1H-imidazol-4-yl)-phenyl]-carbamic acid methyl ester, trifluoroacetic acid salt], Ki 27.3 nM. Against it:
- COC(=O)Nc1ccc(-c2ccnc(CNC(=O)/C=C/c3cc(Cl)ccc3-n3cnnn3)c2)cc1 [Example 7, [4-(2-{[(E)-3-(5-Chloro-2-tetrazol-1-yl-phenyl)-acryloylamino]-methyl}-pyridin-4-yl)-phenyl]-carbamic acid methyl ester, trifluoroacetic acid salt] — 17-fold higher, 475 nM
- COC(=O)Nc1ccc(-c2c[nH]c(=O)c(CNC(=O)/C=C/c3cc(Cl)ccc3-n3cnnn3)c2)cc1 [Example 8, [4-(5-{[(E)-3-(5-Chloro-2-tetrazol-1-yl-phenyl)-acryloylamino]-methyl}-6-oxo-1,6-dihydro-pyridin-3-yl)-phenyl]-carbamic acid methyl ester] — 10-fold higher, 277 nM
- O=C(/C=C/c1cc(Cl)ccc1-n1cnnn1)NCc1nc(-c2ccc3c(c2)CCC(=O)N3)c(Cl)[nH]1 [Example 3, (E)-N-[5-Chloro-4-(2-oxo-1,2,3,4-tetrahydro-quinolin-6-yl)-1H-imidazol-2-ylmethyl]-3-(5-chloro-2-tetrazol-1-yl-phenyl)-acrylamide, trifluoroacetic acid salt] — 2.3-fold lower, 12.1 nM
- COC(=O)Nc1ccc(-c2cncc(CNC(=O)CCc3cc(Cl)ccc3-n3cnnn3)c2)cc1 [Example 6, [4-(5-{[3-(5-Chloro-2-tetrazol-1-yl-phenyl)-propionylamino]-methyl}-pyridin-3-yl)-phenyl]-carbamic acid methyl ester, trifluoroacetic acid salt] — 46-fold higher, 1250 nM
- COC(=O)Nc1ccc(-c2nc(CNC(=O)CCc3cc(Cl)ccc3-n3cnnn3)[nH]c2Cl)cc1 [Example 2, [4-(5-Chloro-2-{[3-(5-chloro-2-tetrazol-1-yl-phenyl)-propionylamino]-methyl}-1H-imidazol-4-yl)-phenyl]-carbamic acid methyl ester, trifluoroacetic acid salt] — 1.6-fold lower, 16.8 nM
- COC(=O)Nc1ccc(-c2cncc(CNC(=O)/C=C/c3cc(Cl)ccc3-n3cnnn3)c2)cc1 [Example 5, [4-(5-{[(E)-3-(5-Chloro-2-tetrazol-1-yl-phenyl)-acryloylamino]-methyl}-pyridin-3-yl)-phenyl]-carbamic acid methyl ester, trifluoroacetic acid salt] — 10-fold higher, 283 nM
- COC(=O)Nc1ccc(-c2nc(CN(Cc3ccccc3)C(=O)/C=C/c3cc(Cl)ccc3-n3cnnn3)[nH]c2Cl)cc1 [Example 10, {4-[2-({Benzyl-[(E)-3-(5-chloro-2-tetrazol-1-yl-phenyl)-acryloyl]-amino}-methyl)-5-chloro-1H-imidazol-4-yl]-phenyl}-carbamic acid methyl ester, trifluoroacetic acid salt] — 55-fold higher, 1510 nM
